Biological target: T1, human kinase Mps-1 (Homo sapiens, UniProt P33981)
T1 construct: N-terminally GST-tagged human full length recombinant Mps-1 kinase; GST (N); purchased Invitrogen, Karslruhe, Germany PV4071
T1 sequence (P33981 1-857): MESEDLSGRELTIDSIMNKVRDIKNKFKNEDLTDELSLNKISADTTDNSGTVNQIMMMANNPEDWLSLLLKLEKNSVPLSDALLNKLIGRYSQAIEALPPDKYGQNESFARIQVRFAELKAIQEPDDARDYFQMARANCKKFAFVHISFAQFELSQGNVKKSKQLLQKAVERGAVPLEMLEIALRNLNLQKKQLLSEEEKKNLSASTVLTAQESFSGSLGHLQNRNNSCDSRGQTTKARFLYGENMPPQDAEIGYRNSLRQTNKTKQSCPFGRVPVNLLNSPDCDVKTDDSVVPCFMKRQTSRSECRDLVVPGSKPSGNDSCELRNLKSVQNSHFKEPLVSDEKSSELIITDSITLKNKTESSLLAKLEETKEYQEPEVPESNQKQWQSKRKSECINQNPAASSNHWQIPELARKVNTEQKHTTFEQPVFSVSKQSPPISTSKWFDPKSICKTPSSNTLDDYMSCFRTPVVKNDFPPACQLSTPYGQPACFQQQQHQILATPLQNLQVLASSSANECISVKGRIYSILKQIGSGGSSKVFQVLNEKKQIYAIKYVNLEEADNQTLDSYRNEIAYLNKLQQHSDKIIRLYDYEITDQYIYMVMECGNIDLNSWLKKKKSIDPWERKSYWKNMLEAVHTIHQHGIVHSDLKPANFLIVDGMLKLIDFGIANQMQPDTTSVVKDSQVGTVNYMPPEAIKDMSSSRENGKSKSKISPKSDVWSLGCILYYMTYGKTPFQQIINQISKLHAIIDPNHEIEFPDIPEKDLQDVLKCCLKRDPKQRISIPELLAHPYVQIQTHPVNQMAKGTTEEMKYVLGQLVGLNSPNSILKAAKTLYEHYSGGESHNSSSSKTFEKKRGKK
Assay: Mps-1 kinase assay (TR-FRET)
Format: biochemical
Details: N-terminally GST-tagged human full length recombinant Mps-1; 10 μM ATP; 1 μM peptide substrate; 60 min at 22° C.; read-out: MPS1 Inhibition, IC50 in M
Experimental: The human kinase Mps-1 phosphorylates a biotinylated substrate peptide. Detection of the phosphorylated product is achieved by time-resolved fluorescence resonance energy transfer (TR-FRET) from Europium-labelled anti-phospho-Serine/Threonine antibody as donor to streptavidin labelled with cross-linked allophycocyanin (SA-XLent) as acceptor. Compounds are tested for their inhibition of the kinase activity.
N-terminally GST-tagged human full length recombinant Mps-1 kinase (purchased from Invitrogen, Karslruhe, Germany, cat. no PV4071) was used. […]
The resulting mixture was incubated 1 h at 22° C. to allow the binding of the phosphorylated peptide to the anti-phospho(Ser/Thr)-Europium-antibody. Subsequently the amount of phosphorylated substrate was evaluated by measurement of the resonance energy transfer from the Europium-labelled anti-phospho(Ser/Thr) antibody to the Streptavidin-XLent. Therefore, the fluorescence emissions at 620 nm and 665 nm after excitation at 350 nm was measured in a Viewlux TR-FRET reader (PerkinElmer LAS, Rodgau-Jügesheim, Germany). The “blank-corrected normalized ratio” (a Viewlux specific readout, similar to the traditional ratio of the emissions at 665 nm and at 622 nm, in which blank and Eu-donor crosstalk are subtracted from the 665 nm signal before the ratio is calculated) was taken as the measure for the amount of phosphorylated substrate. […]

Structure (SMILES): Cc1c(-c2ccc(NC(=O)Cc3ccccc3)cc2)ccc2nc(Nc3ccccc3C#N)nn12 [Example 1.1, N-(4-{2-[(2-cyanophenyl)amino]-5-methyl[1,2,4]triazolo[1,5-a]pyridin-6-yl}phenyl)-2-phenylacetamide]
- IC50: 1.8 nM
